Source: US11479551B2, “MTA-cooperative PRMT5 inhibitors” (Mirati Therapeutics, Inc., priority 2019, dated 2022)
Read-outs that look alike come from different tables or passages of the source.

Legend:
[1] = system: HCT116 homozygous MTAP knockout cells; assay: Proliferation assay (CellTiter-Glo, 10 days of treatment), HCT116 MTAP knockout; assay type: cell-based; conditions: read-out: Proliferation HCT116MTAP_KO IC50
Description: (§1) 1. HCT116 MTAP Knockout Model
(§2) HCT116 cells were genetically engineered to knock out the function of both MTAP alleles using a CRISPR/Cas9 system and an sgRNA targeting the MTAP gene. Following Cas9/MTAP sgRNA transduction, clones were screened to confirm that each allele of the MTAP gene had been inactivated (i.e., homozygous MTAP knock out) creating an MTAP-deficient cell.
(§3) Control samples were analyzed in parallel.
Briefly, on Day 0, 250 HCT116 parental or HCT116 homozygous MTAP knockout cell were seeded in 96 well plates in McCoy's 5A supplemented with 10% fetal bovine serum and pen/strep and the cells were incubated overnight at 37° C. plus 5% CO2.
The following day, cells were treated with DMSO vehicle control or a dose response of PRMT5 inhibitors and incubated at 37 C plus 5% CO2 for five days. On Day 6, the cells were trypsinized and split 1:10 into new 96-well plates with fresh medium containing the same concentration of PRMT5 inhibitor and incubated for an additional 5 days at 37° C. plus 5% CO^2.
On Day 11, the viability of the cells was measured using a CTG assay kit (CellTiter-Glo; Promega cat.no G7573) in accordance with the manufacturer's instructions. The IC50 values for each compound after 10 days of treatment were calculated using GraphPad PRISM software.

[2] = system: PRMT5-dependent Symmetric Di-methyl Arginine signal in HCT116 homozygous MTAP knockout cells; assay: SYM11 In-Cell Western, HCT116 MTAP knockout; assay type: cell-based
Description: as §1, §2, §3
Briefly, on Day 0, 2,000 HCT116 parental or HCT116 homozygous MTAP knockout cells were seeded in 96 well plates in McCoy's 5A supplemented with 10% fetal bovine serum and pen/strep and the cells were incubated overnight at 37° C. plus 5% CO2. The following day, cells were treated with DMSO vehicle control or a dose response of PRMT5 inhibitors, and incubated at 37° C. plus 5% CO^2 for four days.
After 4 days of treatment, the cells were fixed by adding 50 μl of 4% paraformaldehyde solution to each well and the cells were incubated for 20 min at room temperature. The paraformaldehyde solution was removed, 150 μl of ice-cold methanol was added and the plate was placed −20° C. for 10 minutes. The methanol was removed, 150 μl of Odyssey Blocking buffer+0.05% Tween20 was added and the plate was incubated at room temperature with shaking for one hour.
The primary SYM11 antibody solution was removed by aspiration and the wells were washed three consecutive times with phosphate buffered saline containing 0.1% Tween-20 (PBST).
The secondary antibody solution was removed by aspiration and the wells were washed three consecutive times with PB ST.
The SYM11 signal and the DRAQ5 signal were quantified using a Li-Cor Odyssey machine reading at […], respectively. The SYM11/DRAQ5 ratio was used to calculate the inhibition of Symmetric Dimethyl Arginine as percent of DMSO control.

[3] = HCT116 homozygous MTAP knockout cells, 4 days of treatment, SYM11/DRAQ5 ratio; read-out: In-cell-Western (SYM11) HCT116 MTAP_KO IC50
[4] = Homo sapiens, HCT-116, 96 h, HCT116 homozygous MTAP knockout cells, 4 days of treatment, SYM11/DRAQ5 ratio; read-out: In-cell-Western (SYM11) HCT116 MTAP_KO IC50
[5] = read-out: In-cell-Western (SYM11) HCT116 MTAP_KO IC50; HCT116 homozygous MTAP knockout cells, 4 days of treatment, SYM11/DRAQ5 ratio

**Q.** For CC(N)c1n[nH]c(=O)c2ccc(-c3cnn(C)c3-c3ccc4ccccc4c3C#N)cc12 (single isomer, unassigned) [Example 9-4, 2-[4-[4-(1-aminoethyl)-1-oxo-2H-phthalazin-6-yl]-2-methyl-pyrazol-3-yl]naphthalene-1-carbonitrile], which IC50 [1] is on record?
**A.** 4.17 µM

**Q.** And the IC50 [2, 3]?
**A.** > 1 µM

**Q.** For CCOc1cc(-c2cnn(C)c2-c2c(F)cc3ccccc3c2C#N)cc2c(CN)n[nH]c(=O)c12 (single isomer, unassigned) [Example 16-3, 2-[4-[4-(aminomethyl)-8-ethoxy-1-oxo-2H-phthalazin-6-yl]-2-methyl-pyrazol-3-yl]-3-fluoro-naphthalene-1-carbonitrile], which IC50 [1] is on record?
**A.** 0.084 µM

**Q.** And the IC50 [2, 4]?
**A.** 0.015 µM

**Q.** How did the IC50 [1] turn out when CCOc1cc(-c2cnn(C)c2-c2c(F)cc3ccccc3c2C#N)cc2c(CN)n[nH]c(=O)c12 (single isomer, unassigned) [Example 16-4, 2-[4-[4-(aminomethyl)-8-ethoxy-1-oxo-2H-phthalazin-6-yl]-2-methyl-pyrazol-3-yl]-3-fluoro-naphthalene-1-carbonitrile] was run?
**A.** 0.015 µM

**Q.** And the IC50 [2, 3]?
**A.** 0.012 µM

**Q.** How did the IC50 [1] turn out when Cn1ncc(-c2ccc3c(=O)[nH]nc(CN)c3c2)c1-c1c(F)c(Cl)cc(OC2CC2)c1C#N (single isomer, unassigned) [Example 16-7, 2-(4-(4-(aminomethyl)-1-oxo-1,2-dihydrophthalazin-6-yl)-1-methyl-1H-pyrazol-5-yl)-4-chloro-6-cyclopropoxy-3-fluorobenzonitrile] was run?
**A.** 4 µM

**Q.** And the IC50 [2, 5]?
**A.** 1 µM

**Q.** For Cn1ncc(-c2ccc3c(=O)[nH]nc(CN)c3c2)c1-c1c(F)c(Cl)cc(OC2CC2)c1C#N (single isomer, unassigned) [Example 16-8, 2-(4-(4-(aminomethyl)-1-oxo-1,2-dihydrophthalazin-6-yl)-1-methyl-1H-pyrazol-5-yl)-4-chloro-6-cyclopropoxy-3-fluorobenzonitrile], which IC50 [1] is on record?
**A.** 0.024 µM

**Q.** And the IC50 [2, 5]?
**A.** 0.0008 µM

**Q.** How did the IC50 ([1]; Homo sapiens, HCT-116, 240 h) turn out when Cn1ncc(-c2ccc3c(=O)[nH]nc(CN)c3c2)c1-c1ccc(Cl)c(OC2CC2)c1C#N [Example 4-208, 6-(4-(4-(aminomethyl)-1-oxo-1,2-dihydrophthalazin-6-yl)-1-methyl-1H-pyrazol-5-yl)-3-chloro-2-cyclopropoxybenzonitrile] was run?
**A.** 0.124 µM

**Q.** What about the IC50 [2, 4] of the same compound?
**A.** 0.011 µM

**Q.** Which IC50 ([1]; Homo sapiens, HCT-116, 240 h) does the source give for Cn1ncc(-c2ccc3c(=O)[nH]nc(CN)c3c2)c1-c1cnn(Cc2ccccc2)c1C#N [Example 4-211, 4-(4-(aminomethyl)-1-oxo-1,2-dihydrophthalazin-6-yl)-1′-benzyl-2-methyl-1′H,2H-[3,4′-bipyrazole]-5′-carbonitrile] here?
**A.** 2.15 µM

**Q.** What about the IC50 [2, 4] of the same compound?
**A.** 0.197 µM

**Q.** Which IC50 ([1]; Homo sapiens, HCT-116, 240 h) does the source give for Cn1ncc(-c2ccc3c(=O)[nH]nc(CN)c3c2)c1-c1cn(Cc2ccccc2)nc1C#N [Example 4-212, 4-(4-(aminomethyl)-1-oxo-1,2-dihydrophthalazin-6-yl)-1′-benzyl-2-methyl-1′H,2H-[3,4′-bipyrazole]-3′-carbonitrile] here?
**A.** > 10 µM

**Q.** What about the IC50 [2, 4] of the same compound?
**A.** > 10 µM

**Q.** How did the IC50 ([1]; Homo sapiens, HCT-116, 240 h) turn out when Cn1ncc(-c2ccc3c(=O)[nH]nc(CN)c3c2)c1-c1cn(-c2ccccc2)nc1Cl [Example 4-213, 4-(aminomethyl)-6-(3′-chloro-2-methyl-1′-phenyl-1′H,2H-[3,4′-bipyrazol]-4-yl)phthalazin-1(2H)-one] was run?
**A.** 1.68 µM

**Q.** And the IC50 [2, 4]?
**A.** 0.088 µM

**Q.** Which results are given for Cn1ncc(-c2ccc3c(=O)[nH]nc(CN)c3c2)c1-c1cn(-c2ccccc2)nc1C#N [Example 4-214, 4-(4-(aminomethyl)-1-oxo-1,2-dihydrophthalazin-6-yl)-2-methyl-11-phenyl-1′H,2H-[3,4′-bipyrazole]-3′-carbonitrile]?
**A.** IC50 ([1]; Homo sapiens, HCT-116, 240 h): 4.4 µM; IC50 [2, 4]: > 10 µM

**Q.** For Cn1ncc(-c2ccc3c(=O)[nH]nc(CN)c3c2)c1-c1ccc2cc(F)ccc2c1C#N [Example 4-216, 2-(4-(4-(aminomethyl)-1-oxo-1,2-dihydrophthalazin-6-yl)-1-methyl-1H-pyrazol-5-yl)-6-fluoro-1-naphthonitrile], which IC50 ([1]; Homo sapiens, HCT-116, 240 h) is on record?
**A.** 0.134 µM

**Q.** What about the IC50 [2, 4] of the same compound?
**A.** 0.083 µM

**Q.** Which results are given for Cn1ncc(-c2ccc3c(=O)[nH]nc(CN)c3c2)c1-c1cc2ccccc2c(Cl)c1C#N [Example 4-218, 3-(4-(4-(aminomethyl)-1-oxo-1,2-dihydrophthalazin-6-yl)-1-methyl-1H-pyrazol-5-yl)-1-chloro-2-naphthonitrile]?
**A.** IC50 ([1]; Homo sapiens, HCT-116, 240 h): 0.134 µM; IC50 [2, 4]: 0.14 µM

**Q.** What does the source list for Cn1nc(Cl)c(-c2c(-c3ccc4c(=O)[nH]nc(CN)c4c3)cnn2C)c1C#N [Example 4-219, 4-(4-(aminomethyl)-1-oxo-1,2-dihydrophthalazin-6-yl)-3′-chloro-1′,2-dimethyl-1′H,2H-[3,4′-bipyrazole]-5′-carbonitrile]?
**A.** IC50 ([1]; Homo sapiens, HCT-116, 240 h): 3.61 µM; IC50 [2, 4]: > 1 µM

**Q.** Cn1ncc(-c2ccc3c(=O)[nH]nc(CN)c3c2)c1-c1ccc2c(c1C#N)OCCC2 [Example 4-226, 7-(4-(4-(aminomethyl)-1-oxo-1,2-dihydrophthalazin-6-yl)-1-methyl-1H-pyrazol-5-yl)chromane-8-carbonitrile] was tested. Which IC50 ([1]; Homo sapiens, HCT-116, 240 h) did it give?
**A.** 0.191 µM

**Q.** What about the IC50 [2, 4] of the same compound?
**A.** 0.01 µM

**Q.** Which results are given for Cn1ncc(-c2ccc3c(=O)[nH]nc(CN)c3c2)c1-c1cc2ccccn2c1C#N [Example 4-227, 2-(4-(4-(aminomethyl)-1-oxo-1,2-dihydrophthalazin-6-yl)-1-methyl-1H-pyrazol-5-yl)indolizine-3-carbonitrile]?
**A.** IC50 ([1]; Homo sapiens, HCT-116, 240 h): 2.37 µM; IC50 [2, 4]: > 1 µM

**Q.** Which IC50 ([1]; Homo sapiens, HCT-116, 240 h) does the source give for N#Cc1c(-c2sncc2-c2ccc3c(=O)[nH]nc(CN)c3c2)ccc2ccccc12 [Example 4-228, 2-(4-(4-(aminomethyl)-1-oxo-1,2-dihydrophthalazin-6-yl)isothiazol-5-yl)-1-naphthonitrile] here?
**A.** > 10 µM

**Q.** What about the IC50 [2, 4] of the same compound?
**A.** > 1 µM

**Q.** For Cn1ncc(-c2ccc3c(=O)[nH]nc(CN)c3c2)c1-c1cn(Cc2ccccc2C#N)nc1Cl [Example 4-232, 2-((4-(4-(aminomethyl)-1-oxo-1,2-dihydrophthalazin-6-yl)-3′-chloro-2-methyl-1′H,2H-[3,4′-bipyrazol]-1′-yl)methyl)benzonitrile], which IC50 ([1]; Homo sapiens, HCT-116, 240 h) is on record?
**A.** 4.77 µM

**Q.** What about the IC50 [2, 4] of the same compound?
**A.** 0.148 µM

**Q.** With Cn1ncc(-c2ccc3c(=O)[nH]nc(CN)c3c2)c1-c1cccc2cncn12 [Example 4-233, 4-(aminomethyl)-6-(5-(imidazo[1,5-a]pyridin-5-yl)-1-methyl-1H-pyrazol-4-yl)phthalazin-1(2H)-one] as the compound, how does the IC50 ([1]; Homo sapiens, HCT-116, 240 h) read?
**A.** 4.73 µM

**Q.** And the IC50 [2, 4]?
**A.** > 1 µM

**Q.** With Cn1ncc(-c2ccc3c(=O)[nH]nc(CN)c3c2)c1-c1ccc2cccc(F)c2c1C#N [Example 4-234, 2-(4-(4-(aminomethyl)-1-oxo-1,2-dihydrophthalazin-6-yl)-1-methyl-1H-pyrazol-5-yl)-8-fluoro-1-naphthonitrile] as the compound, how does the IC50 ([1]; Homo sapiens, HCT-116, 240 h) read?
**A.** 0.206 µM

**Q.** And the IC50 [2, 4]?
**A.** 0.129 µM

**Q.** Which results are given for N#CCc1ccccc1Oc1cncc(-c2ccc3c(=O)[nH]nc(CN)c3c2)c1 [Example 4-235, 2-(2-((5-(4-(aminomethyl)-1-oxo-1,2-dihydrophthalazin-6-yl)pyridin-3-yl)oxy)phenyl)acetonitrile]?
**A.** IC50 ([1]; Homo sapiens, HCT-116, 240 h): > 10 µM; IC50 [2, 4]: > 1 µM

**Q.** For Cn1ncc(-c2ccc3c(=O)[nH]nc(CN)c3c2)c1-c1cnn(Cc2cccn(C)c2=O)c1Cl [Example 4-236, 4-(aminomethyl)-6-(5′-chloro-2-methyl-1′-((1-methyl-2-oxo-1,2-dihydropyridin-3-yl)methyl)-1′H,2H-[3,4′-bipyrazol]-4-yl)phthalazin-1(2H)-one], which IC50 ([1]; Homo sapiens, HCT-116, 240 h) is on record?
**A.** > 1 µM

**Q.** What about the IC50 [2, 4] of the same compound?
**A.** > 1 µM

**Q.** With Cn1ncc(-c2ccc3c(=O)[nH]nc(CN)c3c2)c1-c1ccc2ncsc2c1C#N [Example 4-237, 6-(4-(4-(aminomethyl)-1-oxo-1,2-dihydrophthalazin-6-yl)-1-methyl-1H-pyrazol-5-yl)benzo[d]thiazole-7-carbonitrile] as the compound, how does the IC50 ([1]; Homo sapiens, HCT-116, 240 h) read?
**A.** 1.04 µM

**Q.** And the IC50 [2, 4]?
**A.** 0.136 µM

**Q.** For Cn1ncc(-c2ccc3c(=O)[nH]nc(CN)c3c2)c1-c1cccn2cncc12 [Example 4-239, 4-(aminomethyl)-6-(5-(imidazo[1,5-a]pyridin-8-yl)-1-methyl-1H-pyrazol-4-yl)phthalazin-1(2H)-one], which IC50 ([1]; Homo sapiens, HCT-116, 240 h) is on record?
**A.** > 10 µM

**Q.** And the IC50 [2, 4]?
**A.** > 1 µM
